Reference: ChEMBL document CHEMBL3507680, “University of Dundee, Gates Library screen for HepG2 cell viability”

Assay: Human HepG2 cell viability assay in 384 well format
Format: toxicity, cell-based
Design: dose 125 nL, time 70.5 hour; cytotoxicity at 70.5 h: concentration not given beside the values
Conditions: HepG2 cells, read-out: Inhibition

| Structure (SMILES) | cytotoxicity at 70.5 h [%] |
| --- | --- |
| Cc1ccc(CNCC2CCc3nnc(C(C)C)n3C2)s1 (stereo unspecified) | -6.69 |
| CC(C)c1nc(CN(C)C2CCN(Cc3nc(C4CC4)no3)C2)no1 (stereo unspecified) | 12 |
| CN(C)CC(=O)N1CCc2onc(Cn3cccn3)c2C1 | -9.72 |
| COCC1CC2(CCN(Cc3cccnc3)CC2)CN1C(C)C (stereo unspecified) | -7.91 |
| Cn1cc(-c2nnn3c2COC(CNCc2ccccn2)C3)cn1 (stereo unspecified) | 14.6 |
| O=C(c1cccnc1)N1CCC2(CC1)CCN(Cc1ccccn1)C2=O | -9.02 |
| Cn1cc(-c2nnn3c2COC(CNCc2ccncc2)C3)cn1 (stereo unspecified) | -2.68 |
| O=C(Cc1cccnc1)N1CCCC2(CCN(CC3CCOCC3)C2)C1 (stereo unspecified) | 1.37 |
| Cn1cccc1C(=O)N1CCN2C[C@H](Oc3cccnc3)C[C@H]2C1 | 21.7 |
| Cn1cc(-c2nnn3c2COC(CNC(=O)c2cccs2)C3)cn1 (stereo unspecified) | 22.3 |
| Cn1cc(-c2nnn3c2COC(CNCc2cccnc2)C3)cn1 (stereo unspecified) | 18.5 |
| O=C(c1ccnnc1)N1CCN2C[C@H](Oc3cccnc3)C[C@H]2C1 | -0.791 |
| O=C(c1cnccn1)N1CCN2C[C@H](Oc3cccnc3)C[C@H]2C1 | 4.06 |
| O=C(c1ccc[nH]1)N1CCC2(CC1)CC(Oc1cccnc1)CO2 (stereo unspecified) | 25 |
| O=C(c1cnccn1)N1CCC2(CC1)CC(Oc1ccccc1)CO2 (stereo unspecified) | 25.9 |
| Cc1ccoc1C(=O)N1C[C@H](OCC2CC2)[C@H]2OCCC[C@H]21 | -0.347 |
| COC[C@@H]1CC[C@H]2[C@H](CCN2S(=O)(=O)c2ccc(C)cc2)O1 | -4.48 |
| CS(=O)(=O)N1CCC2(CC1)CC(CC(=O)NCC1CC1)c1ccccc12 (stereo unspecified) | 5.79 |
| O=c1cc(Cn2cncn2)nc2n1CCCN(Cc1ccoc1)C2 | -0.379 |
| Cc1ccoc1C(=O)N1C[C@@H](OCC2CC2)[C@H]2OCCC[C@H]21 | -1.01 |
| COCCN1C[C@@H]2[C@@H](OC)CCN(C(=O)c3cccc(OC)c3)[C@@H]2C1 | 2 |
| Cc1ccc(CN2CCC3(CC2)C(=O)NCCN3CC2CC2)o1 | 8.52 |

| Structure (SMILES) | cytotoxicity at 70.5 h [%] |
| --- | --- |
| CN1CCC2(CC1)CN(C(=O)c1cccnc1)Cc1ccccc12 | 9.45 |
| CC(=O)N1CC[C@H]2OCC[C@@H](C(=O)NCc3ccco3)[C@H]2C1 | -12.4 |
| CCCc1cc(NCCCC2CCOC2)n2nccc2n1 (stereo unspecified) | -2.1 |
| CCc1ccc2nc(NCC(O)CO)cc(C)c2c1 (stereo unspecified) | 1.81 |
| N[C@@H]1c2ccccc2C2(CCN(c3ccc(C(F)(F)F)cn3)CC2)[C@H]1O | -15.9 |
| CCC(NC(=O)CCCN1CCCCC1)c1cn2cccnc2n1 (stereo unspecified) | -0.954 |
| C[C@@H]1CC[C@@H](C)N1C(=O)c1cc(COc2ccccc2)[nH]n1 | -0.483 |
| Nc1nc(CCNc2ncnc3c2CCN(C(=O)C2CC2)C3)cs1 | -11.6 |
| Cc1nc2c(C)cccc2cc1C(=O)N1CCC2(CCNCC2)CC1 | -5.65 |
| O=C(NC1CCCNC1=O)c1ccc2nc(-c3ccc(F)cc3)cn2c1 (stereo unspecified) | 15 |
| CS(=O)(=O)N1CCCn2nc(CNc3ncccn3)cc2C1 | -1.06 |
| CCc1nc(CN2CC[C@@](O)(CCOC)[C@H](C)C2)cs1 | 17.7 |
| Cc1csc2c(N3CCC(NCCCC4CCOC4)CC3)ncnc12 (stereo unspecified) | 30.5 |
| CN(C)c1ccc(CN2CCN(c3ccc(C#N)cc3)C(=O)C2)cn1 | -7.99 |
| CNc1ncc(CN(C)Cc2cc(O)c3cc(F)ccc3n2)cn1 | -8.18 |
| O=C1CN(C(=O)c2cc(-c3ccco3)nc3c(Cl)cccc23)CCN1 | 9.84 |
| CCc1ocnc1C(=O)N1CCOC(CCCC(C)C)C1 (stereo unspecified) | -12.3 |
| CCc1nnc(CN(C)Cc2nc(-c3ccccc3Cl)oc2C)o1 | -3.53 |
| CN(Cc1nncn1C)c1nccc(N2CCC(O)CC2)n1 | -4.03 |
| Cc1cc(N2CCCN(C(=O)CSCC3CC3)CC2)ccn1 | -17.7 |
| CN(Cc1ccoc1)c1ccc(-c2nccn2C)nn1 | 26.2 |
| C/C=C(\C)CN1C[C@H](NC(=O)CCOC)[C@@H](c2ccc(C)o2)C1 | -18 |

| Structure (SMILES) | cytotoxicity at 70.5 h [%] |
| --- | --- |
| CC(C)n1cnnc1CN(C)C(=O)CCn1cnc2ccccc2c1=O | -17.5 |
| CCC1(C(=O)O)CCCN(CCOCc2ccccc2)C1 (stereo unspecified) | -9.39 |
| CCN(Cc1noc(CC(C)C)n1)C[C@]1(O)CCCN2CCCC[C@@H]21 | -11.7 |
| CC(NC(=O)CCCc1ccc(Cl)cc1)c1n[nH]c(=O)[nH]1 (stereo unspecified) | -0.585 |
| COCc1nc(CN2CC(Cc3ccccc3)CC2=O)no1 (stereo unspecified) | -8.93 |
| CCOC(=O)N1CCN(c2nc(C)ncc2CC)CC1 | 1.02 |
| Cc1cccc(C(=O)N2CCCCC2c2nc3cc(F)ccc3[nH]2)n1 (stereo unspecified) | -11.8 |
| Cc1ncc(CC(=O)N2C[C@@H]3CC[C@H](C2)N(CC2CCC2)C3)c(=O)[nH]1 | -17.8 |
| CCO[C@H]1C[C@@H](O)C12CCN(C1CCN(c3ccccc3C)CC1)CC2 | 3.61 |
| Cc1cccc(CN2CCN(c3ncnc4[nH]ccc34)CC2CCO)n1 (stereo unspecified) | -3.92 |
| Cc1nn(C)cc1C(=O)N1CCCn2nc(CN3CC[C@H](F)C3)cc2C1 | 6.52 |
| CC1(c2ccccc2)CCCN(C(=O)c2ccn3nnnc3c2)C1 (stereo unspecified) | -0.523 |
| N#Cc1c(C2CCOC2)cc(-c2ccc(N3CCCCC3)cc2)nc1N (stereo unspecified) | -7.42 |
| c1ccc(CN2CCN(C3CCOC4(CCOCC4)C3)CC2)nc1 (stereo unspecified) | -16.9 |
| Nc1cc(C(=O)N2CCOC(Cc3cccc(C(F)(F)F)c3)C2)ccn1 (stereo unspecified) | -7.49 |
| CCn1cc(CN2CCN(Cc3cc(C)cc(C)c3)C(=O)C2)cc1C#N | 15.6 |
| CCOc1cccc(C(=O)N2CCC3(CC2)[C@H](O)C[C@@H]3OC)c1 | 0.338 |
| CC(C)N1CCC(CC(=O)NCc2cc(O)ncn2)CC1 | -2.08 |
| C[C@@H]1CN(Cc2cn(C)nc2-c2ccccc2F)C[C@H](C)O1 | -11.3 |
| Cc1ccccc1C(C(=O)N(C)CCc1cn[nH]c1)N(C)C (stereo unspecified) | -7.29 |
| O=C(C1CCCC1)N1CCN(Cc2ccncc2)[C@@H]2CS(=O)(=O)C[C@@H]21 | -5.83 |
| CCn1nc(C(C)C)cc1C(=O)NCC1CCCN(c2ccccn2)C1 (stereo unspecified) | -6.28 |

| Structure (SMILES) | cytotoxicity at 70.5 h [%] |
| --- | --- |
| O=C(NC1CC1)[C@H]1C[C@@H]2CCN(Cc3ccc4c(c3)OCO4)C[C@@H]2O1 | -12.5 |
| O=C(NCC1CC1)[C@H]1C[C@@H]2CCN(Cc3ccc4c(c3)OCO4)C[C@@H]2O1 | -11.6 |
| O=C(c1cocn1)N1C[C@H]2CCC[C@@]2(COc2ccccn2)C1 | 8.39 |
| Cc1noc(C)c1C(=O)N1C[C@@H]2COC[C@]2(COc2ccccn2)C1 | 10.4 |
| Cc1cccc(CN2Cc3ccnn3CC(COCC3CC3)C2)n1 (stereo unspecified) | 8.5 |
| O=C(c1ncccn1)N1C[C@H]2CCC[C@@]2(COc2ccccn2)C1 | -6.17 |
| Cc1ccccc1CC(=O)N1C[C@@H]2COC[C@]2(CN(C)C)C1 | -6.68 |
| O=C([C@@H]1C[C@@H]2CCN(Cc3ccc4c(c3)OCO4)C[C@@H]2O1)N1CCCC1 | -11.1 |
| Cc1nc(CN2CCO[C@H]3[C@H](OCC(=O)N(C)C)CC[C@@H]32)cs1 | 17.3 |
| Cn1nccc1-c1nnn2c1COC(CNCc1nccs1)C2 (stereo unspecified) | 0.565 |
| Cc1cccc(CN2CCCn3c(nnc3Cn3cccn3)C2)n1 | 10.9 |
| O=C1COC2(CCN(c3ncccn3)CC2)CN1Cc1ccccn1 | -5.98 |
| Cc1nnn2c1COC(CNCc1nccs1)C2 (stereo unspecified) | 2.74 |
| CC(=O)N1CCC2(CCN(Cc3ccccn3)C2=O)C1 (stereo unspecified) | 3.63 |
| O=C(C1CC=CC1)N1CCC2(CCN(Cc3ccccn3)C2=O)C1 (stereo unspecified) | 5.7 |
| CC(C)N1CCOCC2(CCCN(C(=O)CCc3cccnc3)C2)C1 (stereo unspecified) | -6.39 |
| COc1cc(N2CCC3(CCCN(C(=O)c4cnccn4)C3)C2)ncn1 (stereo unspecified) | 17 |
| O=C(c1cccnc1)N1CCC2(CC1)CC(Oc1ccccc1)CO2 (stereo unspecified) | 26.5 |
| Cc1noc(C)c1CN1CCO[C@H]2CN(C(=O)C3CCOCC3)C[C@H]21 | -0.225 |
| c1cnc(N2CCOC3(CCN(CC4CCOC4)CC3)C2)nc1 (stereo unspecified) | 2.18 |
| O=C(c1cnccn1)N1CCCC2(CCN(c3ncccn3)C2)C1 (stereo unspecified) | 4.46 |
| Cc1ccc(N2CCC3(CCN(C(=O)c4ccoc4)CC3)CC2)nn1 | -4.56 |

| Structure (SMILES) | cytotoxicity at 70.5 h [%] |
| --- | --- |
| Cn1ccc(C(=O)N2C[C@H]3CCC[C@@]3(COCc3cccnc3)C2)n1 | -0.791 |
| CN1CC[C@H]2OCC[C@@H](C(=O)NCc3ccco3)[C@@H]2C1 | 9.03 |
| Cc1ccc(S(=O)(=O)N2CC[C@H]3CO[C@H](CN(C)C)[C@H]3C2)cc1 | -6.81 |
| CN1CCOCC2(CCCN(C(=O)c3ccc(-n4cccc4)cc3)C2)C1 (stereo unspecified) | 9.26 |
| Fc1cnc(N2CCCC3(COCCN(c4nccs4)C3)C2)nc1 (stereo unspecified) | -12.2 |
| Cc1ccc(C(=O)N2C[C@H]3CCC[C@@]3(COc3ccccn3)C2)nc1 | 11.3 |
| COCC1CC2(CCN(Cc3ccoc3)CC2)CN1C(C)C (stereo unspecified) | -9.47 |
| O=C(Nc1cccnc1)[C@H]1C[C@H]2OCC[C@H]2N(CC2CC2)C1 | -14.8 |
| CCN(C)c1ncnc2c1CCN(Cc1ccsc1)CC2 | 0.529 |
| Cc1cccc(N2CCC3(CCCN(C(=O)c4cccnc4)C3)C2)n1 (stereo unspecified) | 18.7 |
| Cc1cccc(N2CCC3(CCCN(C(=O)c4cccnc4)C3)CC2)n1 | 0.517 |
| c1cnc(N2C[C@H]3CN(CC4CCOC4)C[C@H]3C2)nc1 (stereo partly specified) | -4.56 |
| c1cnc(N2CCC3(CCN(CC4CCOCC4)CC3)C2)nc1 | 0.659 |
| CN1CC(=O)N(c2ccccc2)CC12CCN(CC1CCOCC1)C2 (stereo unspecified) | 22.5 |
| Cc1cccc(N2CCC3(CCN(C(=O)c4cccnc4)CC3)C2)n1 | 14 |
| c1cnc(N2CCC3(COCCN(CC4CCOCC4)C3)C2)nc1 (stereo unspecified) | 3.27 |
| O=c1cc(Cn2cncn2)nc2n1CCCN(CCN1CCCC1)C2 | -9.08 |
| Cc1nc(CO[C@@H]2CC[C@H]3[C@H]2OCCN3Cc2cccnc2)cs1 | 14.5 |
